Measurements reported in US11801252B2, “Pharmaceutical composition” (Jiangsu Hengrui Medicine Co., Ltd., priority 2021, dated 2023).
Like-named read-outs stand apart in the source and are kept apart here.

Test: In vivo food effects study in healthy subjects (Test Example 3)
Set-up: species or system human (healthy male subjects)
Settings: after Test Formulation 300 mg single oral; for AUC—% Extrap of SNAC / CLz/F of SNAC / λz of SNAC: healthy male subjects, Mean ± SD; for AUC(0-t) / AUC(0-inf) / Cmax / MRT last / MRT inf / Vd/F / half-life / Tmax: male, human, plasma, po, 300 mg; for AUC(0-t): read-out: AUC0-t of SNAC; for AUC(0-inf): read-out: AUC0-∞ of SNAC; for Cmax: read-out: Cmax of SNAC; for MRT last: read-out: MRT0-t of SNAC; for MRT inf: read-out: MRT0-∞ of SNAC; for Vd/F: read-out: Vz/F of SNAC; for half-life: read-out: t1/2 of SNAC (converted); for Tmax: read-out: Tmax of SNAC
Source text: To study the effect of food on the pharmacokinetic characteristics of abiraterone acetate tablets through a single oral administration of abiraterone acetate tablets under fasting state or after meal, or a single oral administration of abiraterone acetate tablets (Zytiga®) produced by Patheon Inc. under modified fasting state, in healthy subjects.
A single-center, randomized, open-label, three-period, self-controlled crossover trial design was applied. A total of 24 healthy male subjects were planned to be enrolled in the study. The washout period between each dose group was seven days. Blood samples were collected at a series of time points, and safety test was performed. The HPLC-MS/MS method was used to determine the plasma concentration of abiraterone and SNAC at different time points after drug administration. The non-compartmental model was used to calculate the pharmacokinetic parameters, and statistical analysis was performed.
The subjects were orally administered a single dose of the test formulation (T) under fasting state at a dose of 300 mg (150 mg×2 tablets), a single dose of the test formulation (T) of 300 mg abiraterone acetate tablets (I) (150 mg×2 tablets) after a high-fat meal (the total calories were approximately 800˜1,000 kcal, wherein approximately 50% of the calories were derived from fat; the test meal of each test cycle for the postprandial administration should be consistent; a high-fat meal was given 30 minutes before drug administration and should be finished within 30 minutes), or a single dose of the reference preparation of 1,000 mg abiraterone acetate tablets (Zytiga®) (250 mg×4 tablets) under modified fasting state (a medium-fat meal was given two hours before drug administration and one hour after drug administration; the total calories were approximately 450 kcal wherein 30% of the calories were derived from fat; the meal should be finished within 30 minutes), with 240 mL of warm water, in the morning on the day of drug administration for each cycle. Liquid was prohibited before administration and one hour after drug administration, and a standard lunch and dinner (a standardized light diet) were given approximately 4 and 10 hours after drug administration. The drug was swallowed whole instead of being sucked or chewed.
Test Formulation (T): Abiraterone acetate tablets (Formulation 5), specification: 150 mg;
Reference Preparation (R): Abiraterone Acetate Tablets; produced by Patheon Inc.; trade name: Zytiga®; specification: 250 mg.
The PKPS was used for the statistical analysis of pharmacokinetic parameters.
(§1) With the dosing order, dosing cycle and dosing regimen as fixed effects, the subjects were included as random effects in the linear mixed model as random effects. The least-squares mean ratio of Cmax, AUC0-t and AUC0-∞ of abiraterone in plasma after oral administration of the test formulation T under a high-fat meal or fasting states, and its 90% confidence interval were calculated.
as §1, with “dosing orders,” for “dosing order,”, “mixed model.” for “mixed model as random effects.”, “meal and oral administration of the reference formulation R under modified” for “meal or”

[1] = after a high-fat meal, N = 24, Mean ± SD
[2] = fasting state, N = 23, Mean ± SD

O=C([O-])CCCCCCCNC(=O)c1ccccc1O.[Na+] [SNAC, sodium 8-(salicylamido)caprylate]
AUC—% Extrap of SNAC (after a high-fat meal, N = 24): 0.46 ± 0.63% | CLz/F of SNAC (after a high-fat meal, N = 24): 198.03 ± 28.78 mL/h | λz of SNAC (after a high-fat meal, N = 24): 0.27 ± 0.12 h⁻¹ | AUC—% Extrap of SNAC (fasting state, N = 23): 0.66 ± 0.54% | CLz/F of SNAC (fasting state, N = 23): 255.02 ± 72.16 mL/h | λz of SNAC (fasting state, N = 23): 0.19 ± 0.08 h⁻¹ | AUC(0-t) [1]: 1540 ± 247 ng·h/mL | AUC(0-inf) [1]: 1550 ± 245 ng·h/mL | Cmax [1]: 1120 ± 574 ng/mL | MRT last [1]: 2.28 ± 0.99 h | MRT inf [1]: 2.36 ± 1 h | Vd/F [1]: 0.87 ± 0.362 L | half-life [1]: 3.06 ± 1.19 h | Tmax (after a high-fat meal, N = 24, median): 1.13 h | AUC(0-t) [2]: 1250 ± 305 ng·h/mL | AUC(0-inf) [2]: 1250 ± 306 ng·h/mL | Cmax [2]: 1580 ± 697 ng/mL | MRT last [2]: 1.59 ± 1.35 h | MRT inf [2]: 1.74 ± 1.38 h | Vd/F [2]: 1.62 ± 0.949 L | half-life [2]: 4.22 ± 1.71 h | Tmax (fasting state, N = 23, median): 0.5 h
